Measurements reported in patent publication US11090391B2, “Protein nanocages with enhanced mucus penetration for targeted tissue and intracellular delivery” (The Johns Hopkins University, priority 2016, dated 2021).
pIC50: −log10 of the molar value.

Columns and labels:
[1] = system: 3LL cells stably expressing firefly luciferase (3LL-Luc); assay: In vitro cytotoxicity, luciferase activity; type: cell-based, mouse; settings: 24 hour treatment
Description: Cytotoxicity was evaluated by optical imaging of luciferase expression. 3LL cells stably expressing firefly luciferase (3LL-Luc) were treated with various concentrations of PEG-FTn-DOX and DOX for 24 hour. After adding a D-luciferin solution, the bioluminescence imaging was acquired by a Xenogen IVIS Spectrum optical imaging system (Caliper Life Sciences). The luciferase activity was quantified to determine IC50 by fitting the data with nonlinear regression using GraphPad Prism.

[2] = system: 3LL-based tumor spheroids; assay: Penetration of DOX formulations in tumor spheroids; type: cell-based, mouse; settings: 10 μM DOX concentration
Description: (§1) Multicellular tumor spheroid models consisting of different cancer cell lines were prepared by modifying a previously reported protocol (Friedrich J, et al, Nature Protocols, 4:309-324 (2009)). Briefly, 50 μL DMEM medium containing 1.5% agarose (wt/vol) was plated onto each well of a 96-well microtiter plate under sterile conditions. After the agarose solidifies, the plates were stored at room temperature until use. For the penetration study, 5×10^3 cells were seeded onto the agarose-plated 96-well plates. After 4-5 days culture to obtain multicellular tumor spheroids (400-500 μm in diameter), the tumor spheroids were carefully transferred into glass bottom dishes. […] After the 2-hour incubation, the cells were observed using confocal microscopy with Z-stack imaging at ˜10 μm intervals. […] The 3D images of spheroids were reconstructed by ZEN microscopy software (Carl Zeiss). For analyzing the penetration distance, the radial intensity distribution profile was determined using a custom-made MATLAB code where αtumor is the radius of individual spheroids and r is the radial distance from the spheroid center (r/αtumor=0 and 1 indicate the center and edge of the tumor spheroid, respectively). […] Quantification analysis of signal intensity was performed with ImageJ software (NIH).
Multicellular tumor spheroids were prepared and post-treatment analyzed as described in Example 4.

[3] = system: 3LL-Luc orthotopic proximal lung cancer; assay: In vivo anti-cancer efficacy, orthotopic proximal lung cancer model; design: species or system mouse; settings: single intratracheal dose 0.25 mg/kg
Text: To evaluate the efficacy of PEG-FTn-DOX for treating lung airway cancer, an aggressive orthotopic mouse model was established of proximal lung cancer in inbred mice with intact host immunity. The model was established via intratracheal intubation of cancer cells into the tracheal and bronchial epithelium of lung airways (DuPage M, et al., Nature protocols, 4:1064-1072 (2009)), which was relevant to small cell lung cancer and squamous-cell lung cancer. Briefly, female C57BL/6 mice (6-8 weeks) were inoculated with 2.5×10^4 3 LL-Luc cells in 50 μL of DMEM medium via intratracheal intubation using a 22 G×1″ Safelet catheter (Exel International). Three days after the inoculation, bioluminescence signal in the lung was observed using a Xenogen IVIS Spectrum optical imaging system. […] The tumor growth was monitored at various time points using an IVIS imaging system and the bioluminescence signal in lung at different time points was quantitatively analyzed by the Living Image® (Caliper Life Sciences) software. The survival of mice was recorded daily, and data was analyzed by Kaplan-Meier survival curve.
The luciferase activity of 3LL-Luc was visualized and quantified by a Xenogen IVIS Spectrum optical imaging system. In brief, mice were anesthetized with 2% isoflurane in O2 and received intraperitoneal injection of D-luciferin solution in PBS at a dose of 150 mg/kg. Serial images were acquired between 5 and 20 minutes after the D-luciferin administration, and the bioluminescence signal intensity was quantified by the Living Image® software.

3LL cells [4] = assay: Intracellular trafficking, confocal microscopy; type: cell-based, mouse; settings: 2 hours after addition
3LL cell spheroids = assay: Penetration of Cy5-labeled FTn in multicellular tumor spheroids; type: cell-based, mouse; settings: for distribution in spheroids (3D-reconstructed confocal images): 40 nM, 2-hour incubation; for mean fluorescence signal intensity in spheroids compared to FTn: FIG. 4A
Description: (§2) See detailed procedures as described in Example 4.
as §1

3LL cells [5] = assay: Cell uptake / TfR 1-dependent binding of Cy5-labeled FTn formulations, flow cytometry; type: cell-based, mouse
Description: as §2
Subsequently, cells were incubated with Vibrant® DiO cell labeling solution (Life technologies) for 10 minutes following manufacturer's protocol (sub-cellular localization at cell membranes & lipids). After three times washing with PBS, the cells were fixed with Z-fix solution (Anatech) for 15 min, followed by 1.5 μg/mL DAPI staining at room temperature.
(§3) After washing with cold PBS, cells were analyzed using an AccuriC6 flow cytometer (BD Biosciences). […] The data was fitted to a binding curve via non-linear regression method using GraphPad Prism (GraphPad Software).

[6] = system: orthotopic 3LL lung cancer; settings: mouse, in vivo
Description: The mice were sacrificed 2 hour post-administration, and the entire lungs were isolated and frozen slices were prepared.

[7] = PEG surface density, fluorometric determination; type: physicochemical; settings: for PEG2k density: reassembled FTn by % PEGylated protein
Description: The solution was placed on a rotary incubator for 4 hours and then concentrated by centrifugation (Amicon Ultra-0.5 mL 30 K MWCO; Millipore). […] The density was fluorometrically determined (Suk J S, et al., Advanced Drug Delivery Reviews, 99(Pt A):28-51, Epub 2015).
The ratio [Γ/SA] of total unconstrained PEG surface coverage area [Γ] to total particle surface area [SA] determines the surface PEG conformation: low-density mushroom and high-density brush regimes when [Γ/SA]<1 and [Γ/SA]≥1, respectively (Xu Q, et al., ACS Nano, 9. 9217-9227 (2015); Auguste D T, Biomaterials, 27, 2599-2608 (2006)). Briefly, the surface area occupied by one unconstrained PEG chain was calculated by random-walk statistics and given by a sphere of diameter ξ: ξ=0.76 m^1/2[Å], where m is MW of PEG chain, and the surface area occupied by one PEG molecule can be determined by π(ξ/2)^2. Thus, the surface area occupied by unconstrained PEG of MWs 10, 5 and 2 kDa is 45, 23 and 9 nm^2, respectively. The total unconstrained PEG surface area coverage [Γ] was then calculated by multiplying the area occupied at the surface per PEG chain by the total number of PEG chains per protein nanocage.

[8] = Physicochemical properties (hydrodynamic diameter, ζ-potential, drug loading)
Description: The DOX conjugated PEG-FTn is denoted as FTn/FTn-PEG2k/DOX. […] The mixture was incubated for 1 hour and 1.5 mg EDC was added to activate a carboxyl group of each DOX-linker conjugate. The resultant compounds were analyzed using high-performance liquid chromatography (HPLC, Varian Inc.) equipped with a C18 reverse phase column. […] The final product was extensively dialyzed (10 kDa MWCO; Thermo Scientific) and purified with a PD-10 column.

[9] = Airway distribution after intranasal administration; type: in vivo, mouse; settings: for retention in lung airways (overall fluorescence intensity): compared to non-PEGylated FTn; for coverage of mouse tracheal surfaces: intranasal, 10 minutes after administration
Text: All experiments were approved by the Institutional Animal Care and Use Committee.
Female CF-1 mice (6-8 week) were anesthetized under continuous flow of isoflurane (2% in oxygen). […] Ten minutes after administration, mice were sacrificed and the entire lungs (including trachea) were removed and frozen in Tissue-Tek optimal cutting temperature compound (Sakura Finetek). Tracheas were sectioned on a Leica Cryostat (Leica Biosystems) with a section thickness of 10 μm. The sections were stained with Prolong Gold antifade with DAPI (Life technologies), and fluorescence images of the sections were obtained using a Zeiss confocal microscope. To quantify the particle distribution, the acquired images were analyzed by following an image-based analysis method that was previously reported (Mastorakos P, et al., Proc Nat Acad Sci USA, 112(28):8720-5 (2015)). Briefly, at least 10 fluorescence images at 10× magnification were taken for the lungs harvested from individual animals. The images were quantified with ImageJ software. An average coverage and total particles in airways were determined for each mouse, and then these values were averaged over a group of n=4 mice.

[10] = system: TfR 1-positive lung cancer cells; assay: Uptake of FTn/FTn-PEG2k by panel of cell lines; type: cell-based; settings: C2C12, NCI-H69, H69-AR, SW210.5, A549, NCI-H460, NCI-H1975, PC 9
Description: as §3
TfR 1 expression was determined by western blot analysis with anti-TfR 1 antibody (Ab) (BD Pharmingen) in various cell lines in vitro, including mouse Lewis lung carcinoma (3LL) cells, mouse myoblast (C2C12, a TfR 1-negative cell line as the negative control), human small cell lung cancer cells (NCI-H69, H69-AR, and SW210.5), and human non-small cell lung cancer cells (A549, NCI-H460, NCI-H1975, and PC 9). The expression was also determined when 3LL, A549, PC9, and SW210.5 cells were incubated in 20% oxygen and 1% oxygen (i.e. hypoxic condition).

A549 = assay: Cell uptake of FTn, flow cytometry; type: cell-based, human; settings: TfR 1-mediated
Description: as §3

[11] = Hydrodynamic diameter by gel-filtration / size exclusion chromatography; type: physicochemical
Description: Briefly, the protein standards with known HD (Bio-Rad), including M1 (thyroglobulin; 669 kDa, 18.8 nm HD), M2 (γ-globulin; 158 kDa, 11.9 nm HD), M3 (ovalbumin; 44 kDa, 6.13 nm HD), M4 (myoglobin; 17 kDa, 3.83 nm HD) and M5 (vitamin B12; 1.35 kDa, 1.48 nm HD), were analyzed using GFC and subsequently a standard curve of HD vs retention time was established.

[12] = Colloidal stability by agarose gel electrophoresis (PBS, 10% human plasma); type: physicochemical; settings: 0.5% agarose gel, 10% human plasma 1 hour 37° C.
Description: Nanocages reassembled in phosphate buffered saline (PBS) with varying % of PEGylated protein were analyzed by electrophoresis within a 0.5% agarose gel to determine any aggregation.

[13] = target: transferrin receptor 1 (TfR 1) on mouse Lewis lung carcinoma (3LL) cells (mouse) (UniProt Q62351)

COc1cccc2c1C(=O)c1c(O)c3c(c(O)c1C2=O)C[C@@](O)(C(=O)CO)C[C@@H]3O[C@H]1C[C@H](N)[C@H](O)[C@H](C)O1 [DOX, doxorubicin, reference compound]
pIC50 [1]: 6.32
distribution in spheroids (3D confocal images) [2]: remained primarily at the periphery of the spheroids
median survival [3]: 18 days
intracellular localization of DOX (3LL cells [4]): primarily localized in the cell nuclei

FTn-Cy5: FTn labeled with fluorescent dye Cy5, ~23 dye molecules per FTn
penetration in presence of excess unlabeled FTn (3LL cell spheroids; 10-fold molar excess, 1 hour): reduced significantly
uptake in the presence of anti-TfR 1 antibody (3LL cells [5]; 10-fold molar excess anti-TfR 1 Ab): significantly reduced uptake

FTn/FTn-PEG2k: hybrid nanocage formed with 50% ferritin and 50% PEGylated ferritin using PEG2k
localization in orthotopic lung cancer [6]: found preferentially within the tumor tissue
PEG surface density ([7]; hybrid nanocage, fluorometric measurement): ~0.24±0.03 PEG/nm^2
PEG2k density [7]: 0.21 #/nm^2
Hydrodynamic diameter [8]: 13.6 ± 1.3 nm
ζ-potential [8]: −4.1 ± 1.1 mV
retention in lung airways (overall fluorescence intensity) [9]: retained at higher levels
coverage of mouse tracheal surfaces [9]: 77±8%
uptake by TfR 1-positive cells [10]: efficiently taken up
colocalization with lysosomes (3LL cells [4]): colocalized with lysosomes
distribution in spheroids (3D-reconstructed confocal images) (3LL cell spheroids): uniformly distributed throughout the entire spheroids including the core
mean fluorescence signal intensity in spheroids in presence of anti-TfR 1 Ab (3LL cell spheroids; 10-fold molar excess, 1 hour): significantly decreased
mean fluorescence signal intensity in spheroids compared to FTn (3LL cell spheroids): indistinguishable
tumor cell uptake compared to non-PEGylated FTn (3LL cells [5]; 3LL cells, 2 kDa PEG, non-PEGylated FTn = 100%): more than 80%

FTn/FTn-PEG5k: hybrid FTn with 1:1 molar ratio of FTn and FTn conjugated with 5 kDa PEG
retention in lung airways (overall fluorescence intensity) [9]: retained at higher levels
coverage of mouse tracheal surfaces [9]: 80±8%
distribution in spheroids (3D-reconstructed confocal images) (3LL cell spheroids): primarily near the periphery of tumor spheroids
mean fluorescence signal intensity in spheroids compared to FTn (3LL cell spheroids): significantly lower intensity

FTn/FTn-PEG10k: hybrid FTn with 1:1 molar ratio of FTn and FTn conjugated with 10 kDa PEG
coverage of mouse tracheal surfaces [9]: 74±8%
distribution in spheroids (3D-reconstructed confocal images) (3LL cell spheroids): primarily near the periphery of tumor spheroids
mean fluorescence signal intensity in spheroids compared to FTn (3LL cell spheroids): significantly lower intensity
uptake compared to the uptake of FTn (3LL cells [5]; FIG. 3C): significantly reduced

FTn: ferritin heavy-chain nanocages self-assembled from recombinant human ferritin heavy chain, without PEG
PEG2k density [7]: 0 #/nm^2
uptake by A549 (A549): taken up
coverage of mouse tracheal surfaces [9]: 50±9%
distribution in airways ([9]; mucus-covered large airways (trachea)): sparsely distributed in airways
diameter from size exclusion chromatography ([11]; pH 2.0, broad peak): 1.8-5.4 nm
diameter from size exclusion chromatography ([11]; pH 7.4, single peak): 13.2 nm
distribution in spheroids (3D-reconstructed confocal images) (3LL cell spheroids): uniformly distributed throughout the entire spheroids including the core
mean fluorescence signal intensity in spheroids in presence of anti-TfR 1 Ab (3LL cell spheroids; 10-fold molar excess, 1 hour): significantly decreased
aggregation during electrophoresis (colloidal stability) [12]: aggregated and were stuck in the wells

hybrid nanocage FTn/FTn-PEG2k (50% ferritin and 50% ferritin PEGylated with 2 kDa PEG) (ligand)
relative uptake (%) by 3LL cells, non-PEGylated FTn = 100% (% of the uptake of non-PEGylated FTn) [13]: > 80
